Experiments:
Type in all cases: in vivo
Monochoria vaginalis [1] = assay: Test Example 12: herbicidal effect test by treatment during growing period in paddy field; settings: 120 g/10a; treatment seven days after sowing in flooded paddy pot; assessed 14 days after treatment
Method in brief: (§1)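 Paddy soil + NPK 17:17:17, puddled; 30 seeds/species sown 0–1 cm; flooded ~3 cm, greenhouse. Day 7 post-sowing: EC diluted in water, applied dropwise into water, 120 g a.i./10 are. Day 14 post-treatment: dry weight vs untreated → % suppression; n=2.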

Scirpus juncoides [2] = assay: as above; settings: 120 g/10a; treatment seven days after sowing in flooded paddy pot; assessed 14 days after treatment
Method in brief: as §1

Lindernia pyxidaria [3] = assay: as above; settings: 120 g/10a; treatment seven days after sowing in flooded paddy pot; assessed 14 days after treatment
Method in brief: as §1

Echinochloa crus-galli [4] = assay: as above; settings: 120 g/10a; treatment seven days after sowing in flooded paddy pot; assessed 14 days after treatment
Method in brief: as §1

Monochoria vaginalis [5] = assay: Test Example 11: herbicidal effect test by soil treatment in paddy field; settings: 120 g/10a active ingredient, 14 days after treatment
Method in brief: (§2)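 Pre-emergence paddy test, 120 g a.i./10 are, emulsifiable concentrate diluted in water and added dropwise to ~3 cm flood water right after sowing (30 seeds/species, 0–1 cm depth, fertilized puddled soil). Greenhouse; 2 replicates; dry-weight suppression (%) vs untreated, day 14.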

Scirpus juncoides [6] = assay: as above; settings: 120 g/10a active ingredient, 14 days after treatment
Method in brief: as §2

Lindernia pyxidaria [7] = assay: as above; settings: 120 g/10a active ingredient, 14 days after treatment
Method in brief: as §2

Echinochloa crus-galli [8] = assay: as above; settings: 120 g/10a active ingredient, 14 days after treatment
Method in brief: as §2

SMILES	Weed suppression rate (%) Monochoria vaginalis (Monochoria vaginalis [1])	Weed suppression rate (%) Scirpus juncoides (Scirpus juncoides [2])	Weed suppression rate (%) Lindemia pyxidaria (Lindernia pyxidaria [3])	Weed suppression rate (%) Echinochloa crus-galli (Echinochloa crus-galli [4])	Weed suppression rate (%) Monochoria vaginalis (Monochoria vaginalis [5])	Weed suppression rate (%) Scirpus juncoides (Scirpus juncoides [6])	Weed suppression rate (%) Lindemia pyxidaria (Lindernia pyxidaria [7])	Weed suppression rate (%) Echinochloa crus-galli (Echinochloa crus-galli [8])
CC(C)N(C(=O)n1cnn(S(=O)(=O)c2ccccc2Cl)c1=O)c1ccccc1F [Compound 11-502]	80%	90%	80%	90%	80%	90%	80%	90%
CC(C)N(C(=O)n1cnn(S(=O)(=O)c2ccc(C(C)(C)C)cc2)c1=O)c1ccc(Cl)cc1Br [Compound 11-694]	70%	80%	60%	70%	70%	70%	80%	90%
CC(C)N(C(=O)n1cnn(S(=O)(=O)c2ccc(Cl)cc2)c1=O)c1c(F)cc(F)cc1F [Compound 11-592]	100%	80%	80%	100%	90%	80%	100%	100%
CC(C)N(C(=O)n1cnn(S(=O)(=O)c2c(F)cccc2F)c1=O)c1cccc(F)c1F [Compound 11-772]	90%	90%	70%	100%	80%	80%	90%	100%
CC(C)N(C(=O)n1cnn(S(=O)(=O)c2ccc(C(C)(C)C)cc2)c1=O)c1cccc(F)c1F [Compound 11-681]	100%	100%	90%	100%	80%	100%	90%	100%
Cc1cc(F)ccc1N(C(=O)n1cnn(S(=O)(=O)C2CCCCC2)c1=O)C(C)C [Compound 11-307]	60%	60%	70%	90%	70%	80%	70%	80%
CN(C(=O)n1cnn(S(=O)(=O)c2ccc(F)cc2)c1=O)c1ccc(F)cc1F [Compound 11-1137]	80%	100%	70%	100%	80%	100%	90%	100%
CC(C)N(C(=O)n1cnn(S(=O)(=O)c2ccccc2F)c1=O)c1c(F)cccc1F [Compound 11-404]	70%	70%	70%	100%	60%	30%	30%	100%
